This passage reports inhibition results from ChEMBL document CHEMBL1132337, “Chiral resolution and stereospecificity of 6-phenyl-4-phenylethynyl- 1,4-dihydropyridines as selective A(3) adenosine receptor antagonists” (J Med Chem, 1999).

Sequence of Adenosine receptor A2a (Rattus norvegicus) (P30543 whole entry): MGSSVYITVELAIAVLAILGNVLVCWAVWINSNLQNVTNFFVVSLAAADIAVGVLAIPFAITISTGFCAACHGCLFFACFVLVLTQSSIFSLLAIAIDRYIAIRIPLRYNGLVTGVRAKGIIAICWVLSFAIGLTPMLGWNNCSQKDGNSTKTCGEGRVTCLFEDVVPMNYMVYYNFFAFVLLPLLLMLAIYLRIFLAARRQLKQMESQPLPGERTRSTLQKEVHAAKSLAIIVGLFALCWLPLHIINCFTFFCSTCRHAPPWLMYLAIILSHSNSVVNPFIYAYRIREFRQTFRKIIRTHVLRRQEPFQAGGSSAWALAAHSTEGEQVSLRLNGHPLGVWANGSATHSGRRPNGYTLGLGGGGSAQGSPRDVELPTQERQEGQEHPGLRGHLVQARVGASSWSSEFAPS

The test has as its target Adenosine receptor A2a (Rattus norvegicus) (UniProt P30543). The test is described as follows: Displacement of [3H]CGS-21680 from Adenosine A2A receptor of rat striatal membrane at 10e-4 M.
By inhibition is commonly meant the drop in the measured response relative to a control, in per cent. Low values mean little suppression, high ones strong suppression. On to `CCO/C(O)=C1\C(C)=NC(c2ccccc2)=C(C(=O)OCc2ccccc2)[C@@H]1C#Cc1ccccc1`, for which the inhibition worked out at 11%. The same measure for `CCOC(=O)C1=C(c2ccccc2)N=C(C)/C(=C(/O)OC[C@H]2COC(C)(C)O2)[C@H]1C#Cc1ccccc1`: 10%; for `CCOC(=O)C1=C(c2ccccc2)N=C(C)/C(=C(/O)OC[C@H]2COC(C)(C)O2)[C@@H]1C#Cc1ccccc1`: 10%; for `CCO/C(O)=C1\C(C)=NC(c2ccccc2)=C(C(=O)OCc2ccccc2)C1C#Cc1ccccc1` (stereo unspecified): 10%. The same measure for `CCOC(=O)C1=C(c2ccccc2)N=C(C)/C(=C(/O)OC[C@H](O)CO)[C@H]1C#Cc1ccccc1`: 10%. The same measure for `CCO/C(O)=C1\C(C)=NC(c2ccccc2)=C(C(=O)OCc2ccccc2)[C@H]1C#Cc1ccccc1`: 14%.
